Assays:
[1] = test system: mRNA expressed from the genes (A) to (D) in rat liver; experiment: Behavior of genes (mRNA expression level, oligo-DNA microarray) in rat liver after 28-day oral administration; assay type: in vivo; details: mRNA vs vehicle control group; for Behavior of gene caused by administration of chemical substance, Gene No. 4846 / Behavior of gene caused by administration of chemical substance, Gene No. 2026 / Behavior of gene caused by administration of chemical substance, Gene No. 4218 / Behavior of gene caused by administration of chemical substance, Gene No. 6182 / Behavior of gene caused by administration of chemical substance, Gene No. 5600: gene group (A); for Behavior of gene caused by administration of chemical substance, Gene No. 4846: Unigene No. Rn.144554; for Behavior of gene caused by administration of chemical substance, Gene No. 2026 / Behavior of gene caused by administration of chemical substance, Gene No. 4218: Unigene No. Rn.167075; for Behavior of gene caused by administration of chemical substance, Gene No. 6182: Unigene No. Rn.5834; for Behavior of gene caused by administration of chemical substance, Gene No. 5600: Unigene No. Rn.9836; for Behavior of gene caused by administration of chemical substance, Gene No. 1494 / Behavior of gene caused by administration of chemical substance, Gene No. 2045 / Behavior of gene caused by administration of chemical substance, Gene No. 2203: gene group (B); for Behavior of gene caused by administration of chemical substance, Gene No. 1494: Unigene No. Rn.1430; for Behavior of gene caused by administration of chemical substance, Gene No. 2045: Unigene No. Rn.19329; for Behavior of gene caused by administration of chemical substance, Gene No. 2203: Unigene No. Rn.21240; for Behavior of gene caused by administration of chemical substance, Gene No. 533 / Behavior of gene caused by administration of chemical substance, Gene No. 725 / Behavior of gene caused by administration of chemical substance, Gene No. 1163 / Behavior of gene caused by administration of chemical substance, Gene No. 4973 / Behavior of gene caused by administration of chemical substance, Gene No. 4095 / Behavior of gene caused by administration of chemical substance, Gene No. 1334 / Behavior of gene caused by administration of chemical substance, Gene No. 6620 / Behavior of gene caused by administration of chemical substance, Gene No. 6303 / Behavior of gene caused by administration of chemical substance, Gene No. 5878 / Behavior of gene caused by administration of chemical substance, Gene No. 1131 / Behavior of gene caused by administration of chemical substance, Gene No. 1562 / Behavior of gene caused by administration of chemical substance, Gene No. 1741 / Behavior of gene caused by administration of chemical substance, Gene No. 893 / Behavior of gene caused by administration of chemical substance, Gene No. 6026 / Behavior of gene caused by administration of chemical substance, Gene No. 154 / Behavior of gene caused by administration of chemical substance, Gene No. 1993 / Behavior of gene caused by administration of chemical substance, Gene No. 813 / Behavior of gene caused by administration of chemical substance, Gene No. 2494 / Behavior of gene caused by administration of chemical substance, Gene No. 2546 / Behavior of gene caused by administration of chemical substance, Gene No. 3776 / Behavior of gene caused by administration of chemical substance, Gene No. 3929 / Behavior of gene caused by administration of chemical substance, Gene No. 1119 / Behavior of gene caused by administration of chemical substance, Gene No. 6742 / Behavior of gene caused by administration of chemical substance, Gene No. 5634: gene group (C); for Behavior of gene caused by administration of chemical substance, Gene No. 533: Unigene No. Rn.106184; for Behavior of gene caused by administration of chemical substance, Gene No. 725: Unigene No. Rn.108075; for Behavior of gene caused by administration of chemical substance, Gene No. 1163: Unigene No. Rn.11766; for Behavior of gene caused by administration of chemical substance, Gene No. 4973: Unigene No. Rn.118529; for Behavior of gene caused by administration of chemical substance, Gene No. 4095: Unigene No. Rn.119024; for Behavior of gene caused by administration of chemical substance, Gene No. 1334 / Behavior of gene caused by administration of chemical substance, Gene No. 6620: Unigene No. Rn.120914; for Behavior of gene caused by administration of chemical substance, Gene No. 6303: Unigene No. Rn.123063; for Behavior of gene caused by administration of chemical substance, Gene No. 5878: Unigene No. Rn.143213; for Behavior of gene caused by administration of chemical substance, Gene No. 1131: Unigene No. Rn.144946; for Behavior of gene caused by administration of chemical substance, Gene No. 1562: Unigene No. Rn.14744; for Behavior of gene caused by administration of chemical substance, Gene No. 1741: Unigene No. Rn.1647; for Behavior of gene caused by administration of chemical substance, Gene No. 893: Unigene No. Rn.164817; for Behavior of gene caused by administration of chemical substance, Gene No. 6026: Unigene No. Rn.167685; for Behavior of gene caused by administration of chemical substance, Gene No. 154: Unigene No. Rn.185941; for Behavior of gene caused by administration of chemical substance, Gene No. 1993: Unigene No. Rn.18728; for Behavior of gene caused by administration of chemical substance, Gene No. 813: Unigene No. Rn.201760; for Behavior of gene caused by administration of chemical substance, Gene No. 2494: Unigene No. Rn.23969; for Behavior of gene caused by administration of chemical substance, Gene No. 2546: Unigene No. Rn.24561; for Behavior of gene caused by administration of chemical substance, Gene No. 3776: Unigene No. Rn.43232; for Behavior of gene caused by administration of chemical substance, Gene No. 3929: Unigene No. Rn.4620; for Behavior of gene caused by administration of chemical substance, Gene No. 1119: Unigene No. Rn.9757; for Behavior of gene caused by administration of chemical substance, Gene No. 6742: Unigene No. Rn.9779; for Behavior of gene caused by administration of chemical substance, Gene No. 5634: Unigene No. Rn.9862; for Behavior of gene caused by administration of chemical substance, Gene No. 5726: gene group (D), Unigene No. Rn.9939
In short: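 Liver mRNA levels were compared with matched vehicle groups, with a shift of at least 1.5-fold up or down deemed significant unless its direction disagreed with other carcinogens. Test substances were dosed orally by gavage daily for 28 days to 5-week-old male F344 rats, four per group.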

liver = details: classification of the substance (Cr+/Cr−); cited from earlier work
rodent = details: classification of the substance (C+/C−); cited from earlier work
[2] = classification of the substance (M+/M−); cited from earlier work

Row | Structure (SMILES) | Behavior of gene caused by administration of chemical substance, Gene No. 4846 [1] | Behavior of gene caused by administration of chemical substance, Gene No. 2026 [1] | Behavior of gene caused by administration of chemical substance, Gene No. 4218 [1] | Behavior of gene caused by administration of chemical substance, Gene No. 6182 [1] | Behavior of gene caused by administration of chemical substance, Gene No. 5600 [1] | Behavior of gene caused by administration of chemical substance, Gene No. 1494 [1] | Behavior of gene caused by administration of chemical substance, Gene No. 2045 [1] | Behavior of gene caused by administration of chemical substance, Gene No. 2203 [1] | Behavior of gene caused by administration of chemical substance, Gene No. 533 [1] | Behavior of gene caused by administration of chemical substance, Gene No. 725 [1] | Behavior of gene caused by administration of chemical substance, Gene No. 1163 [1] | Behavior of gene caused by administration of chemical substance, Gene No. 4973 [1] | Behavior of gene caused by administration of chemical substance, Gene No. 4095 [1] | Behavior of gene caused by administration of chemical substance, Gene No. 1334 [1] | Behavior of gene caused by administration of chemical substance, Gene No. 6620 [1] | Behavior of gene caused by administration of chemical substance, Gene No. 6303 [1] | Behavior of gene caused by administration of chemical substance, Gene No. 5878 [1] | Behavior of gene caused by administration of chemical substance, Gene No. 1131 [1] | Behavior of gene caused by administration of chemical substance, Gene No. 1562 [1] | Behavior of gene caused by administration of chemical substance, Gene No. 1741 [1] | further results
1 | C#C[C@]1(O)CC[C@H]2[C@@H]3CCc4cc(O)ccc4[C@H]3CC[C@@]21C [TS019, Ethinylestradiol] | + | − | − | + | − | − | − | + | + | + | + | + | + | + | + | + | + | + | + | + | Behavior of gene caused by administration of chemical substance, Gene No. 893 [1]: +; Behavior of gene caused by administration of chemical substance, Gene No. 6026 [1]: +; Behavior of gene caused by administration of chemical substance, Gene No. 154 [1]: +; Behavior of gene caused by administration of chemical substance, Gene No. 1993 [1]: +; Behavior of gene caused by administration of chemical substance, Gene No. 813 [1]: −; Behavior of gene caused by administration of chemical substance, Gene No. 2494 [1]: +; Behavior of gene caused by administration of chemical substance, Gene No. 2546 [1]: +; Behavior of gene caused by administration of chemical substance, Gene No. 3776 [1]: +; Behavior of gene caused by administration of chemical substance, Gene No. 3929 [1]: +; Behavior of gene caused by administration of chemical substance, Gene No. 1119 [1]: +; Behavior of gene caused by administration of chemical substance, Gene No. 6742 [1]: −; Behavior of gene caused by administration of chemical substance, Gene No. 5634 [1]: +; Behavior of gene caused by administration of chemical substance, Gene No. 5726 [1]: −; Liver carcinogenicity (liver): Cr+; Carcinogenicity (rodent): C+; Mutagenicity by Ames test [2]: M−
2 | ClC=C(Cl)Cl [TS022, Trichloroethylene] | + | − | − | + | − | + | + | + | − | − | − | − | − | − | − | − | − | − | − | − | Behavior of gene caused by administration of chemical substance, Gene No. 893 [1]: −; Behavior of gene caused by administration of chemical substance, Gene No. 6026 [1]: −; Behavior of gene caused by administration of chemical substance, Gene No. 154 [1]: −; Behavior of gene caused by administration of chemical substance, Gene No. 1993 [1]: −; Behavior of gene caused by administration of chemical substance, Gene No. 813 [1]: −; Behavior of gene caused by administration of chemical substance, Gene No. 2494 [1]: −; Behavior of gene caused by administration of chemical substance, Gene No. 2546 [1]: −; Behavior of gene caused by administration of chemical substance, Gene No. 3776 [1]: −; Behavior of gene caused by administration of chemical substance, Gene No. 3929 [1]: −; Behavior of gene caused by administration of chemical substance, Gene No. 1119 [1]: −; Behavior of gene caused by administration of chemical substance, Gene No. 6742 [1]: +; Behavior of gene caused by administration of chemical substance, Gene No. 5634 [1]: −; Behavior of gene caused by administration of chemical substance, Gene No. 5726 [1]: −; Liver carcinogenicity (liver): Cr−; Carcinogenicity (rodent): C+; Mutagenicity by Ames test [2]: M−
3 | COc1ccc(O)c(C(C)(C)C)c1 [TS023, Butylated hydroxyanisole] | − | − | − | − | − | − | − | + | − | + | + | + | + | − | − | − | − | − | − | − | Behavior of gene caused by administration of chemical substance, Gene No. 893 [1]: −; Behavior of gene caused by administration of chemical substance, Gene No. 6026 [1]: −; Behavior of gene caused by administration of chemical substance, Gene No. 154 [1]: +; Behavior of gene caused by administration of chemical substance, Gene No. 1993 [1]: −; Behavior of gene caused by administration of chemical substance, Gene No. 813 [1]: −; Behavior of gene caused by administration of chemical substance, Gene No. 2494 [1]: −; Behavior of gene caused by administration of chemical substance, Gene No. 2546 [1]: −; Behavior of gene caused by administration of chemical substance, Gene No. 3776 [1]: −; Behavior of gene caused by administration of chemical substance, Gene No. 3929 [1]: −; Behavior of gene caused by administration of chemical substance, Gene No. 1119 [1]: −; Behavior of gene caused by administration of chemical substance, Gene No. 6742 [1]: −; Behavior of gene caused by administration of chemical substance, Gene No. 5634 [1]: −; Behavior of gene caused by administration of chemical substance, Gene No. 5726 [1]: −; Liver carcinogenicity (liver): Cr−; Carcinogenicity (rodent): C+; Mutagenicity by Ames test [2]: M−
